Test results reported in publication PMC12893000, “Structural basis of quinone sensing by the MarR-type repressor MhqR in Staphylococcus aureus” (mBio, 2025).

Experiments:
SaMhqR [1] = target: T1, SaMhqR (Staphylococcus aureus, UniProt W8U802); assay: ITC; format: binding
T1 construct: gene ACR79_11795; full-length (144 amino acids), C-terminal His-tag, homodimer

SaMhqR [2] = target: T1, SaMhqR; assay: crystal structure (co-crystallized with MHQ, oxidized to MBQ) and ITC; format: binding

T1 sequence (W8U802 entry or part of it): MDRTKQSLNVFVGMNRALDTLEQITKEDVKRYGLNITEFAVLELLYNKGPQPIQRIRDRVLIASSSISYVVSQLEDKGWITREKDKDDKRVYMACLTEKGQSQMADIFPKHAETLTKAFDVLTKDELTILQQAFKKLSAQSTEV

Compound	Kd (SaMhqR [1]) [µM]	Kd (SaMhqR [2]) [µM]
Cc1cc(O)ccc1O [MHQ, 2-methylhydroquinone]	~6	
CC1=CC(=O)C=CC1=O [MBQ, 2-methylbenzoquinone]		~3
